The values below come from patent publication US7592359B2, “Substituted azabicyclo hexane derivatives as muscarinic receptor antagonists” (Ranbaxy Laboratories Limited, priority 2003, dated 2009).

Structures are written as SMILES.

In assay [1] the target is T1, M2 muscarinic receptor (Rattus norvegicus, UniProt P10980).
T1 construct: Submandibular glands and heart were isolated and placed in ice cold homogenising buffer; from tissue; host or cells: rat heart membrane homogenate
T1 sequence (P10980 1-466): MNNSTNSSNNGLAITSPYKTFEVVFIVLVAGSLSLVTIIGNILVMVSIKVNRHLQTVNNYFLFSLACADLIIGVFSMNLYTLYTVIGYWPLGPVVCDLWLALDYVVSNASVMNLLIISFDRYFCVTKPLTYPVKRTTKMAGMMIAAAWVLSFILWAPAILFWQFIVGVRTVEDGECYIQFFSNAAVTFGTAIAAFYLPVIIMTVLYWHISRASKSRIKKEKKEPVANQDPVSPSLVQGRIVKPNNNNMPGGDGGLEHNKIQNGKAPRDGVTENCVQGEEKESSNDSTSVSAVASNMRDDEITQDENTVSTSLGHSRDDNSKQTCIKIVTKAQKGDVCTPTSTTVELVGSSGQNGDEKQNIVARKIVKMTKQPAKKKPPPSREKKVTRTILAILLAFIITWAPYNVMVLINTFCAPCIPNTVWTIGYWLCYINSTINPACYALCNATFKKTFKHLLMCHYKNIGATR
The experiment in a line: Radioligand binding assay, [3H]-N-methylscopolamine, rat heart membranes. The following applies: [3H]-NMS binding, read-out: Receptor Binding Assay pKi M2 (converted). As to the method:
(§1) Membrane preparation: Submandibular glands and heart were isolated and placed in ice cold homogenising buffer (HEPES 20 mM, 10 mM EDTA, pH 7.4) immediately after sacrifice. The tissues were homogenised in 10 volumes of homogenising buffer and the homogenate was filtered through two layers of wet gauze and filtrate was centrifuged at 500 g for 10 min. The supernatant was subsequently centrifuged at 40,000 g for 20 min. The pellet thus obtained was resuspended in same volume of assay buffer (HEPES 20 mM, EDTA 5 mM, pH 7.4) and were stored at −70° C. until the time of assay.
(§2) Ligand binding assay The compounds were dissolved and diluted in DMSO. The membrane homogenates (150-250 μg protein) were incubated in 250 μl of assay buffer (HEPES 20 mM, pH 7.4) at 24-25° C. for 3 hours. Non-specific binding was determined in the presence of 1 μM atropine. The incubation was terminated by vacuum filtration over GF/B fiber filters (Wallac). The filters were then washed with ice cold 50 mM Tris HCl buffer (pH 7.4). The filter mats were dried and bound radioactivity retained on filters was counted. The IC50 & Kd were estimated by using the non-linear curve fitting program using G Pad Prism software.

Assay [2] concerns the target T2, M3 muscarinic receptor (Rattus norvegicus, UniProt P08483).
T2 construct: Submandibular glands and heart were isolated and placed in ice cold homogenising buffer; from tissue; host or cells: rat submandibular gland membrane homogenate
Nature of the assay: Radioligand binding assay, [3H]-N-methylscopolamine, rat submandibular gland membranes. The following applies: [3H]-NMS binding, read-out: Receptor Binding Assay pKi M3 (converted). The method, then:
as §1, §2

T2 sequence (P08483 whole entry): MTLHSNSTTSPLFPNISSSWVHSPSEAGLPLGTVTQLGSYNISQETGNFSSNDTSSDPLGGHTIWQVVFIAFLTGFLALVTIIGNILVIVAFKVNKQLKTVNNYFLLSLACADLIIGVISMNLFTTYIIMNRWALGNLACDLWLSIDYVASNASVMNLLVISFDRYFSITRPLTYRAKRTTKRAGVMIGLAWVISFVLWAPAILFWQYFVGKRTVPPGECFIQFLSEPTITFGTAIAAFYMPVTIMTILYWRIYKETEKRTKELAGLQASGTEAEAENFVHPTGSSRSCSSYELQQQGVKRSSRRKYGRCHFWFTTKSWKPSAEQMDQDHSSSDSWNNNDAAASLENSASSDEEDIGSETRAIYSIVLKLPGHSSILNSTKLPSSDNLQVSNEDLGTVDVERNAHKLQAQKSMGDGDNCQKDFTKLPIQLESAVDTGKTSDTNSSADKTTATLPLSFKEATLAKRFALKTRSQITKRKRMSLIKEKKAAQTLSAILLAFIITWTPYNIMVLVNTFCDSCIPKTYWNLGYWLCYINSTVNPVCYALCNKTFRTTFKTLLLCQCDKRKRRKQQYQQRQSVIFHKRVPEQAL

With `O=C(NC12CC1CN(Cc1ccccc1)C2)C(CO)c1ccccc1` (stereo not drawn) [Compound No. 4, (1α,5α)-N-[3-benzyl-3-azabicyclo[3.1.0]hex-1-yl]-2-hydroxymethyl-2-phenylacetamide], the results for the Ki in assay [1] and in assay [2] were 15.8 µM and 7.94 µM, respectively.
